Test results: patent US8969325B2, “TRPV1 antagonists” (AbbVie Inc., priority 2011, dated 2015)

Assays:
human TRPV1 [1] = biological target: T1, human TRPV1 (Homo sapiens (Human), UniProt Q8NER1); assay: Capsaicin Activation Assay (intracellular Ca2+, FLIPR); assay type: cell-based; conditions: recombinant HEK293 cells expressing hTRPV1, 50 nM capsaicin
Outline: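 Stably transfected HEK293 cells expressing human TRPV1 cDNA, plated the day before in poly-D-lysine plates. Compounds serially diluted from 10 mM DMSO stocks; intracellular Ca2+ fluorescence read on FLIPR at 1 to 5 second intervals.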

human TRPV1 [2] = biological target: T1, human TRPV1; assay: Acid Activation Assay (pH 5.0, intracellular Ca2+, FLIPR); assay type: cell-based; conditions: percentage of the maximal pH 5.0-induced response remaining; recombinant HEK293 hTRPV1 cells; maximum concentration tested 37.5 μM
Outline: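 HEK293 cells stably expressing recombinant hTRPV1, loaded with Calcium-4 dye 90-120 min at 25° C. Compounds added over a 12-point half-log range (top 37.5 μM), then pH 5.0 DPBS/MES challenge after 3 min; FLIPR peak fluorescence over baseline given as % of maximal pH 5.0 response.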

T1 sequence (Q8NER1 whole entry): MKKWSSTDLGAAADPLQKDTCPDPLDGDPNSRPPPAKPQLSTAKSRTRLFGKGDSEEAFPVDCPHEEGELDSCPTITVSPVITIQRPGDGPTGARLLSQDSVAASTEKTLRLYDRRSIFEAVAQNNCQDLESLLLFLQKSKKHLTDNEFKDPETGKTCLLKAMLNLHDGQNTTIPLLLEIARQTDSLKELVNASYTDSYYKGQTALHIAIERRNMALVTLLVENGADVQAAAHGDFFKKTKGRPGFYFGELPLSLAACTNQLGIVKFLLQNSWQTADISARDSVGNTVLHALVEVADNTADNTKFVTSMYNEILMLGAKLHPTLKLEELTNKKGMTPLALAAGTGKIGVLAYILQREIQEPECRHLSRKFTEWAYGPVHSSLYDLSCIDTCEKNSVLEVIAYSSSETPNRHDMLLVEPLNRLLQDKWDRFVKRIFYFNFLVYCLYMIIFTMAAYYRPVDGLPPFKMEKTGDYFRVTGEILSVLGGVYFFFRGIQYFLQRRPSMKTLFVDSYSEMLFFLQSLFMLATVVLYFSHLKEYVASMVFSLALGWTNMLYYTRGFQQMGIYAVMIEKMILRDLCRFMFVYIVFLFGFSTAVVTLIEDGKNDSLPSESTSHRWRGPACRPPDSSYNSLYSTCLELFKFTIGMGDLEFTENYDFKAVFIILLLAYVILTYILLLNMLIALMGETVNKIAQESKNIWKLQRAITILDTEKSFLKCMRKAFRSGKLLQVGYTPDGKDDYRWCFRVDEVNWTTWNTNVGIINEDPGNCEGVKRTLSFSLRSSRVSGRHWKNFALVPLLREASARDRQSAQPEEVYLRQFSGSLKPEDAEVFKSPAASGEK

Row | IC50 (human TRPV1 [1]) | human TRPV1 H^+ (max % remain) (human TRPV1 [2]) | SMILES
1 | 14 nM | 26% | Cn1c(=O)ccc2c(NC(=O)N[C@@H]3CCOc4cc(C(F)(F)F)ccc43)cccc21 [Example 64, 1-(1-methyl-2-oxo-1,2-dihydroquinolin-5-yl)-3-[(4R)-7-(trifluoromethyl)-3,4-dihydro-2H-chromen-4-yl]urea]
2 | 28 nM | 37% | Cn1c(=O)ccc2c(NC(=O)N[C@@H]3CC4(CCCC4)Oc4ccccc43)cccc21 [Example 65, 1-[(4R)-3,4-dihydrospiro[chromene-2,1′-cyclopentan]-4-yl]-3-(1-methyl-2-oxo-1,2-dihydroquinolin-5-yl)urea]
3 | 15 nM | 42% | CCC1(CC)C[C@@H](NC(=O)Nc2cccc3c2ccc(=O)n3C)c2cccc(F)c2O1 [Example 66, 1-[(4R)-2,2-diethyl-8-fluoro-3,4-dihydro-2H-chromen-4-yl]-3-(1-methyl-2-oxo-1,2-dihydroquinolin-5-yl)urea]
4 | 17 nM | 41% | CCC1(CC)C[C@@H](NC(=O)Nc2cccc3c2ccc(=O)n3C)c2ccccc2O1 [Example 67, 1-[(4R)-2,2-diethyl-3,4-dihydro-2H-chromen-4-yl]-3-(1-methyl-2-oxo-1,2-dihydroquinolin-5-yl)urea]
5 | 20 nM | 34% | Cn1c(=O)ccc2c(NC(=O)N[C@@H]3CCc4cc(C(C)(C)C)ccc43)cccc21 [Example 68, 1-[(1R)-5-tert-butyl-2,3-dihydro-1H-inden-1-yl]-3-(1-methyl-2-oxo-1,2-dihydroquinolin-5-yl)urea]
6 | 55 nM | 13% | CCC1(CC)C[C@@H](NC(=O)Nc2cccc3c2ccc(=O)n3C)c2ccc(C(F)(F)F)cc2O1 [Example 69, 1-[(4R)-2,2-diethyl-7-(trifluoromethyl)-3,4-dihydro-2H-chromen-4-yl]-3-(1-methyl-2-oxo-1,2-dihydroquinolin-5-yl)urea]
7 | 29 nM | 17% | CCC1(CC)C[C@@H](NC(=O)Nc2cccc3c2ccc(=O)n3C)c2ccc(Cl)cc2O1 [Example 70, 1-[(4R)-7-chloro-2,2-diethyl-3,4-dihydro-2H-chromen-4-yl]-3-(1-methyl-2-oxo-1,2-dihydroquinolin-5-yl)urea]
8 | 29 nM | 46% | Cn1c(=O)ccc2c(NC(=O)N[C@@H]3CC(CF)(CF)Oc4ccc(F)cc43)cccc21 [Example 71, 1-[(4R)-6-fluoro-2,2-bis(fluoromethyl)-3,4-dihydro-2H-chromen-4-yl]-3-(1-methyl-2-oxo-1,2-dihydroquinolin-5-yl)urea]
9 | 54 nM | 36% | Cn1c(=O)ccc2c(NC(=O)N[C@@H]3CC(CF)(CF)Oc4c(F)cc(F)cc43)cccc21 [Example 72, 1-[(4R)-6,8-difluoro-2,2-bis(fluoromethyl)-3,4-dihydro-2H-chromen-4-yl]-3-(1-methyl-2-oxo-1,2-dihydroquinolin-5-yl)urea]
10 | 19 nM | 32% | Cn1c(=O)ccc2c(NC(=O)N[C@@H]3CC4(CCC4)Oc4ccc(F)cc43)cccc21 [Example 73, 1-[(4R)-6-fluoro-3,4-dihydrospiro[chromene-2,1′-cyclobutan]-4-yl]-3-(1-methyl-2-oxo-1,2-dihydroquinolin-5-yl)urea]
11 | 19 nM | 28% | CCC1(CC)C[C@@H](NC(=O)Nc2cccc3c2ccc(=O)n3C)c2cc(F)ccc2O1 [Example 74, 1-[(4R)-2,2-diethyl-6-fluoro-3,4-dihydro-2H-chromen-4-yl]-3-(1-methyl-2-oxo-1,2-dihydroquinolin-5-yl)urea]
12 | 24 nM | 50% | CCCC1(CCC)C[C@@H](NC(=O)Nc2cccc3c2ccc(=O)n3C)c2cccc(F)c2O1 [Example 75, 1-[(4R)-8-fluoro-2,2-dipropyl-3,4-dihydro-2H-chromen-4-yl]-3-(1-methyl-2-oxo-1,2-dihydroquinolin-5-yl)urea]
